± gives the expanded uncertainty stated by the source.
Columns and labels:
[1] = for mass density: 101.33 kPa, Vibrating tube method; for mass density / surface tension liquid-gas: Liquid; for surface tension liquid-gas: Maximal bubble pressure; for Glass transition temperature: DSC
[2] = refractive index (Na D-line) (dimensionless); settings: 101.33 kPa, Liquid, Standard Abbe refractometry

CCCCn1cc[n+](C)c1.N[C@@H](CO)C(=O)[O-] [1-butyl-3-methylimidazolium L-serinate]
Settings	mass density, [1] [kg/m3]	refractive index, [2]	surface tension liquid-gas, [1] [mN/m]
298.15 K	1156.04 ± 1.1	1.5143 ± 0.0005	45.4 ± 0.4
303.15 K	1152.82 ± 1.1	1.5135 ± 0.0005	45.2 ± 0.4
308.15 K	1149.61 ± 1.1	1.5126 ± 0.0005	45 ± 0.4
313.15 K	1146.45 ± 1.1	1.5114 ± 0.0005	44.7 ± 0.4
318.15 K	1143.31 ± 1.1	1.5106 ± 0.0005	44.4 ± 0.4
323.15 K	1140.08 ± 1.1	1.5096 ± 0.0005	44.3 ± 0.4
328.15 K	1136.91 ± 1.1	1.5091 ± 0.0005	44 ± 0.4
333.15 K	1133.81 ± 1.1	1.5077 ± 0.0005	43.8 ± 0.4
338.15 K	1130.64 ± 1.1	1.5069 ± 0.0005	43.5 ± 0.4

Settings	Glass transition temperature [°C]
[1]	-47.20 ± 1

CCC[n+]1ccn(C)c1.N[C@@H](CO)C(=O)[O-] [1-methyl-3-propylimidazolium L-serinate]
Settings	mass density, [1] [kg/m3]	refractive index, [2]	surface tension liquid-gas, [1] [mN/m]
298.15 K	1181.51 ± 1.1	1.5179 ± 0.0005	46.8 ± 0.5
303.15 K	1178.34 ± 1.1	1.5165 ± 0.0005	46.6 ± 0.4
308.15 K	1175.19 ± 1.1	1.5153 ± 0.0005	46.4 ± 0.4
313.15 K	1172.03 ± 1.1	1.5141 ± 0.0005	46.1 ± 0.4
318.15 K	1168.88 ± 1.1	1.5131 ± 0.0005	45.8 ± 0.4
323.15 K	1165.67 ± 1.1	1.5123 ± 0.0005	45.6 ± 0.4
328.15 K	1162.6 ± 1.1	1.5112 ± 0.0005	45.4 ± 0.4
333.15 K	1159.49 ± 1.1	1.51 ± 0.0005	45.1 ± 0.4
338.15 K	1156.42 ± 1.1	1.5086 ± 0.0005	44.9 ± 0.4

Settings	Glass transition temperature [°C]
[1]	-54.5 ± 1
